pEC50: −log10 of the molar value. Where no end group is shown, it is not given here.
Assays:
[1] = biological target: T1, rat TGR23-5 expressing CHO cells (Rattus norvegicus, UniProt P0C0L6); test: Intracellular Ca ion concentration increasing activity using FLIPR; format: cell-based
T1 construct: expressed in transfected cells; host or cells: CHO dhfr- cells, pAKKO-rTGR23-5, clone No. 29
T1 sequence (P0C0L6 1-372): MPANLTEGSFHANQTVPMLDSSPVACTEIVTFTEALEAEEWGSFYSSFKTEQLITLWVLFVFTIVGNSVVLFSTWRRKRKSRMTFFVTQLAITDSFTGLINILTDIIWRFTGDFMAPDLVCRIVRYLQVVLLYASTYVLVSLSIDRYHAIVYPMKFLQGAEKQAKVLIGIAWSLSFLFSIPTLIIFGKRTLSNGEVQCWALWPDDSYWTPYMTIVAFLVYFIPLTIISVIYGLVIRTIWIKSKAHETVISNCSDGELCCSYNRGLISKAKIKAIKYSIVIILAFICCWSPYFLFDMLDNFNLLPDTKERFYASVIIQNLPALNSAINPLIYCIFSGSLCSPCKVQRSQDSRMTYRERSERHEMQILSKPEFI
Method: (§1) An enhancing activity of intracellular Ca^2+ release was assayed using FLIPR (Molecular Devices, Inc.). The CHO/TGR23-2 cells prepared in Example 1 and selected in Example 2 were plated on 96-well plate at 3×10^4 cells/well and cultured for 24 hours. A loading buffer was prepared by adding 1 vial of Fluo 3-AM to 10 ml of Hanks' solution (pH7.4) containing 2.5 mM Probenecid and 20 mM HEPES (hereafter, Hanks' solution (pH7.4) containing 2.5 mM Probenecid and 20 mM HEPES may be referred to as a washing buffer). The culture medium was discarded from the culture plate and 100 μl/well of the loading buffer were added to the cells. Then, the cells were incubated for 60 minutes in the incubator. After the loading buffer was removed from the culture plate and the cells were washed with the washing buffer, the plate was put in place of FLIPR. A sample was prepared by adding a sample buffer, which 2 mg/ml BSA and 1 mg/ml CHAPS were added to the washing buffer, to lyophilized product, stirring and treating by ultrasonication for 30 minutes, and transferred to 96-well sample plate. This sample plate was also put in place for assay. The enhancing activity of intracellular Ca^2+ release was measured as an increase of fluorescent intensity, which is raised by addition of the sample.
The rat TGR23-2 ligand (1-18) having various concentrations was administered in accordance with the method described in Example 5, to the CHO cells, in which rat TGR23-1 and rat TGR23-5 are expressed. Subsequently, the intracellular Ca ion concentration increasing activity was measured using FLIPR.

[2] = Feeding level after administration into rat lateral ventricle; format: in vivo, Wistar rats; conditions: 10 nmol/rat, at 1.5 hours and two hours after administration, vs distilled water group, p<0.05
Method: Effects on the feeding level by administration of the human TGR23-2 ligand (1-20) into rat lateral ventricle were studied.
Rats were bred for lightning hours from eight to twenty o'clock at 25° C. Male Wistar rats at eight weeks old (260 through 280 g of weight at the time of operation) were anesthetized with 50 mg/kg of pentobarbital, i.p., and each rat was immobilized in a rat brain stereotaxic apparatus. The incisor bar was set 3.3 mm lower from the interaural line. The skull was exposed, and using a dental drill a hole was made on the bone for implantation of a guide cannula AG-8 (0.4 mm inner diameter, 0.5 mm outer diameter, EICOM Co., Ltd.). In addition, three anchor screws were buried around the hole. A stainless-steel guide cannula, AG-8 was inserted in such a manner that its tip would be situated in the upper part of the lateral ventricle. Following the atlas of Paxinos and Watson (1986), the stereotaxic coordinates were set to AP: −0.8 mm, L: 1.5 mm, and H: −4.5 mm from the bregma. The guide cannula was secured to the skull using an instant adhesive, dental cement and anchor screws. […]
For about one week after embedding of guide cannula, rats were bred to be postoperatively recuperative and be naturalized to powder feed. […] Feeding level after infusion was measured with time using Feed-Scale (Columbus) every 30 minutes until four hours after administration.

[3] = biological target: T2, human TGR23-1A expressing CHO cells (Homo sapiens, UniProt Q6W5P4, S241R); test: Intracellular Ca ion concentration increasing activity using FLIPR; format: cell-based
T2 construct: expressed in transfected cells; host or cells: CHO dhfr- cells, pAKKO-TGR23-1A, clone No. 60
T2 sequence (Q6W5P4 1-371 S241R): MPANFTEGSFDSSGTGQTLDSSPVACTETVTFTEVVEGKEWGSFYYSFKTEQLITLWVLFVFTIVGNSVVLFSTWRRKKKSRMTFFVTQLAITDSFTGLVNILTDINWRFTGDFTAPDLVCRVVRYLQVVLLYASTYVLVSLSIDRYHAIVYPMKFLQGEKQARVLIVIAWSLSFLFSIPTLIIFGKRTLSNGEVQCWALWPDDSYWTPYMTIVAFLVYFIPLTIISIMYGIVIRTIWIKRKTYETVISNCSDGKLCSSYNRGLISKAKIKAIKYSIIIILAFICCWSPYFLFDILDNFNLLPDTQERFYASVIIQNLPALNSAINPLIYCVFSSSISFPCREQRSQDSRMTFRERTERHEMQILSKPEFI
Method: as §1
The human TGR23-2 ligand (1-20) having various concentrations was administered in accordance with the method described in Example 5, to the CHO cells, in which human TGR23-1A, human TGR23-1B, human TGR23-1C and human TGR23-1D are expressed. Subsequently, the intracellular Ca ion concentration increasing activity was measured using FLIPR.

Row | pEC50 ([1]; rat TGR23-5 expressing cells, calculated from graph FIG. 28) | Sequence | intracellular Ca ion concentration increasing activity ([1]; rat TGR23-5 expressing CHO cells) | feeding level [2] | intracellular Ca ion concentration increasing activity [3]
1 | 7.85 | SFRNGVGSGVKKTSFRRA [rat TGR23-2 ligand (1-18), Ser-Phe-Arg-Asn-Gly-Val-Gly-Ser-Gly-Val-Lys-Lys-Thr-Ser-Phe-Arg-Arg-Ala] | the intracellular Ca ion level increased depending on the concentration of this ligand | – | –
2 | – | SFRNGVGTGMKKTSFQRAKS [human TGR23-2 ligand (1-20)] | – | significant decrease of feeding level | the intracellular Ca ion level increased depending on the concentration of this ligand
